Values of other authors as cited in patent publication US20260137642A1 (CANCER PREVENTION PHARMACEUTICALS, INC., priority 2021, published 2026).

Legend:
[1] = in vivo; cited from earlier work
[2] = phase II study; cited from earlier work
[3] = cited from earlier work
[4] = cited from earlier work; remark: listed apart in the source

For Cc1ccc(-c2cc(C(F)(F)F)nn2-c2ccc(S(N)(=O)=O)cc2)cc1 [Celecoxib, 4-[5-(4-Methylphenyl)-3-(trifluoromethyl)pyrazol-1-yl]benzenesulfonamide], the “Increase in rates of heart and blood vessel disease” value [1] is given as 30% and the “Risk of gastrointestinal side effects” value [1] is given as “greater than 80%”.
For CCNCCCNCCCNCCCNCC [DENSPM], the Tolerability [2] is given as “well-tolerated”.
For CC1=C(CC(=O)O)c2cc(F)ccc2/C1=C\c1ccc([S+](C)[O-])cc1 (centres unmarked) [Sulindac, (Z)-5-fluoro-2-methyl-1-((4-(methylsulfinyl)phenyl)methylene)-1H-indene-3-acetic acid], the “Patients with mild gastrointestinal effects” value ([3]; abdominal pain and nausea most frequent) is given as about 20%, the “Patients with skin rash and pruritus” value ([3]; human, in vivo) is given as 5% and the “Fraction of the drug absorbed” value ([4]; after oral administration) is given as “about 90%”. For the same compound, the “Time to peak plasma levels” value ([4]; fasting patients) was “about 2 hours”.
In the case of CSc1ccc(/C=C2/C(C)=C(CC(=O)O)c3cc(F)ccc32)cc1 [sulfide metabolite], the Mean half-life ([4]; in vivo) is listed as 16.4 h.
